Test system: UACC-62
Assay: Growth inhibition of human UACC62 cells assessed as cell growth at 10^-5 M after 48 hrs by SRB assay
Format: functional
Conditions: UACC-62, 48 h, read-out: Activity

C/C(=N\O)c1ccc(OCC(=O)Nc2ccc(C(=O)/C=C/c3ccc(Cl)cc3)cc2)cc1
growth at 10 µM: 37.5%

— ChEMBL document CHEMBL2040759, “Design, synthesis and anticancer activity of nitric oxide donating/chalcone hybrids” (2012)
